Source: ChEMBL document CHEMBL1201862, “PubChem BioAssay data set” (2004)
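Grown in 96-well plates, cells were treated for 48 hours with each compound at five concentrations. Insufficient inhibition: endpoint recorded as highest concentration tested. Here, GI50 denotes the concentration required for 50% inhibition of growth.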 The source made the active and inactive calls. Rule as the data show it: active = GI50 up to about 1.1 µM and inactive = higher.

Experiments:
Test in all cases: inhibition of tumour cell growth, NCI panel, 48 h
786-0 = tested on: 786-0
A498 = tested on: A498
A549 = tested on: A549
ACHN = tested on: ACHN
BT-549 = tested on: BT-549
CAKI-1 = tested on: CAKI-1
CCRF-CEM = tested on: CCRF-CEM
COLO 205 = tested on: COLO 205
DU-145 = tested on: DU-145
EKVX = tested on: EKVX
HCC 2998 = tested on: HCC 2998
HCT-116 = tested on: HCT-116
HCT-15 = tested on: HCT-15
HL-60 = tested on: HL-60
HOP-62 = tested on: HOP-62
HOP-92 = tested on: HOP-92
HT-29 = tested on: HT-29
Hs-578T = tested on: Hs-578T
IGROV-1 = tested on: IGROV-1
K562 = tested on: K562
KM12 = tested on: KM12
LOX IMVI = tested on: LOX IMVI
M14 = tested on: M14
MCF7 = tested on: MCF7
MDA-MB-231 = tested on: MDA-MB-231
MDA-MB-435 = tested on: MDA-MB-435
MDA-N = tested on: MDA-N
MOLT-4 = tested on: MOLT-4
Malme-3M = tested on: Malme-3M
NCI-H226 = tested on: NCI-H226
NCI-H23 = tested on: NCI-H23
NCI-H460 = tested on: NCI-H460
NCI-H522 = tested on: NCI-H522
NCI/ADR-RES = tested on: NCI/ADR-RES
OVCAR-3 = tested on: OVCAR-3
OVCAR-4 = tested on: OVCAR-4
OVCAR-5 = tested on: OVCAR-5
OVCAR-8 = tested on: OVCAR-8
PC-3 = tested on: PC-3
RPMI-8226 = tested on: RPMI-8226
RXF 393 = tested on: RXF 393
SF-268 = tested on: SF-268
SF-295 = tested on: SF-295
SF-539 = tested on: SF-539
SK-MEL-28 = tested on: SK-MEL-28
SK-MEL-5 = tested on: SK-MEL-5
SK-OV-3 = tested on: SK-OV-3
SN12C = tested on: SN12C
SNB-19 = tested on: SNB-19
SNB-75 = tested on: SNB-75
SW-620 = tested on: SW-620
T47D = tested on: T47D
TK-10 = tested on: TK-10
U-251 = tested on: U-251
UACC-257 = tested on: UACC-257
UACC-62 = tested on: UACC-62
UO-31 = tested on: UO-31
SK-MEL-2 = tested on: SK-MEL-2

`Cc1cc(O)c(C(C)C)cc1CN1CCCCC1` was tested, and the GI50 (786-0) was > 100 µM (inactive), the GI50 (A498) was > 100 µM (inactive) and the GI50 (A549) was > 100 µM (inactive). The GI50 (ACHN) was > 100 µM (inactive), the GI50 (BT-549) was > 100 µM (inactive) and the GI50 (CAKI-1) was > 100 µM (inactive). The GI50 (CCRF-CEM) was > 100 µM (inactive), the GI50 (COLO 205) was > 100 µM (inactive) and the GI50 (DU-145) was > 100 µM (inactive). For the same molecule, the GI50 (EKVX) was > 100 µM (inactive), the GI50 (HCC 2998) was > 100 µM (inactive) and the GI50 (HCT-116) was > 100 µM (inactive). The GI50 (HCT-15) was over 100 µM, the GI50 (HL-60) was > 100 µM (inactive) and the GI50 (HOP-62) was > 100 µM (inactive). The GI50 (HOP-92) was > 100 µM (inactive), the GI50 (HT-29) was > 100 µM (inactive) and the GI50 (Hs-578T) was > 100 µM (inactive). For the same molecule, the GI50 (IGROV-1) was > 100 µM (inactive), the GI50 (K562) was > 100 µM (inactive) and the GI50 (KM12) was > 100 µM (inactive). The GI50 (LOX IMVI) was > 100 µM (inactive), the GI50 (M14) was > 100 µM (inactive) and the GI50 (MCF7) was > 100 µM (inactive). The GI50 (MDA-MB-231) was > 100 µM (inactive), the GI50 (MDA-MB-435) was > 100 µM (inactive) and the GI50 (MDA-N) was > 100 µM (inactive). For the same molecule, the GI50 (MOLT-4) was > 100 µM (inactive), the GI50 (Malme-3M) was > 100 µM (inactive) and the GI50 (NCI-H226) was > 100 µM (inactive). For the same molecule, the GI50 (NCI-H23) was > 100 µM (inactive), the GI50 (NCI-H460) was > 100 µM (inactive) and the GI50 (NCI-H522) was > 100 µM (inactive). The GI50 (NCI/ADR-RES) was > 100 µM (inactive), the GI50 (OVCAR-3) was > 100 µM (inactive) and the GI50 (OVCAR-4) was > 100 µM (inactive). For the same molecule, the GI50 (OVCAR-5) was > 100 µM (inactive), the GI50 (OVCAR-8) was > 100 µM (inactive) and the GI50 (PC-3) was > 100 µM (inactive). For the same molecule, the GI50 (RPMI-8226) was > 100 µM (inactive), the GI50 (RXF 393) was > 100 µM (inactive) and the GI50 (SF-268) was > 100 µM (inactive). For the same molecule, the GI50 (SF-295) was > 100 µM (inactive), the GI50 (SF-539) was > 100 µM (inactive) and the GI50 (SK-MEL-28) was > 100 µM (inactive). For the same molecule, the GI50 (SK-MEL-5) was > 100 µM (inactive), the GI50 (SK-OV-3) was > 100 µM (inactive) and the GI50 (SN12C) was > 100 µM (inactive). The GI50 (SNB-19) was > 100 µM (inactive), the GI50 (SNB-75) was > 100 µM (inactive) and the GI50 (SW-620) was > 100 µM (inactive). For the same molecule, the GI50 (T47D) was > 100 µM (inactive), the GI50 (TK-10) was > 100 µM (inactive) and the GI50 (U-251) was > 100 µM (inactive). The GI50 (UACC-257) was > 100 µM (inactive), the GI50 (UACC-62) was > 100 µM (inactive) and the GI50 (UO-31) was > 100 µM (inactive).
With `C=C[C@H]1CN2CC[C@H]1C[C@@H]2[C@@H](O)c1ccnc2ccccc12` [CINCHONINE] the GI50 (786-0) was > 100 µM (inactive), the GI50 (A498) was 63 µM (inactive) and the GI50 (A549) was > 100 µM (inactive). For the same molecule, the GI50 (ACHN) was > 100 µM (inactive), the GI50 (BT-549) was > 100 µM (inactive) and the GI50 (CAKI-1) was > 100 µM (inactive). For the same molecule, the GI50 (COLO 205) was > 100 µM (inactive), the GI50 (DU-145) was > 100 µM (inactive) and the GI50 (EKVX) was 73.3 µM (inactive). For the same molecule, the GI50 (HCT-116) was > 100 µM (inactive), the GI50 (HCT-15) was over 100 µM and the GI50 (HL-60) was > 100 µM (inactive). The GI50 (HOP-62) was 89.9 µM (inactive), the GI50 (HT-29) was 46.8 µM (inactive) and the GI50 (Hs-578T) was 1.26 µM (inactive). For the same molecule, the GI50 (IGROV-1) was 19.6 µM (inactive), the GI50 (K562) was 55.2 µM (inactive) and the GI50 (KM12) was > 100 µM (inactive). For the same molecule, the GI50 (LOX IMVI) was 5.4 µM (inactive), the GI50 (M14) was 38.1 µM (inactive) and the GI50 (MCF7) was > 100 µM (inactive). The GI50 (MDA-MB-231) was > 100 µM (inactive), the GI50 (MDA-MB-435) was > 100 µM (inactive) and the GI50 (MDA-N) was > 100 µM (inactive). For the same molecule, the GI50 (MOLT-4) was > 100 µM (inactive), the GI50 (Malme-3M) was > 100 µM (inactive) and the GI50 (NCI-H226) was > 100 µM (inactive). For the same molecule, the GI50 (NCI-H23) was > 100 µM (inactive), the GI50 (NCI-H460) was > 100 µM (inactive) and the GI50 (NCI-H522) was > 100 µM (inactive). The GI50 (NCI/ADR-RES) was > 100 µM (inactive), the GI50 (OVCAR-3) was > 100 µM (inactive) and the GI50 (OVCAR-4) was 58.6 µM (inactive). The GI50 (OVCAR-5) was > 100 µM (inactive), the GI50 (OVCAR-8) was > 100 µM (inactive) and the GI50 (PC-3) was > 100 µM (inactive). The GI50 (RPMI-8226) was 22.9 µM (inactive), the GI50 (RXF 393) was > 100 µM (inactive) and the GI50 (SF-268) was > 100 µM (inactive). The GI50 (SF-295) was > 100 µM (inactive), the GI50 (SF-539) was > 100 µM (inactive) and the GI50 (SK-MEL-28) was > 100 µM (inactive). The GI50 (SK-MEL-2) was > 100 µM (inactive), the GI50 (SK-MEL-5) was > 100 µM (inactive) and the GI50 (SK-OV-3) was > 100 µM (inactive). For the same molecule, the GI50 (SN12C) was > 100 µM (inactive), the GI50 (SNB-19) was > 100 µM (inactive) and the GI50 (SNB-75) was 22.8 µM (inactive). For the same molecule, the GI50 (SW-620) was > 100 µM (inactive), the GI50 (T47D) was > 100 µM (inactive) and the GI50 (TK-10) was > 100 µM (inactive). For the same molecule, the GI50 (U-251) was > 100 µM (inactive), the GI50 (UACC-257) was > 100 µM (inactive) and the GI50 (UACC-62) was > 100 µM (inactive). For the same molecule, the GI50 (UO-31) was 52.7 µM (inactive).
In the case of `O=C(N/N=C(COc1ccc(Cl)cc1)\N=C\c1cccnc1)c1ccncc1`, the GI50 (786-0) is reported as > 100 µM (inactive), the GI50 (A498) is reported as 52.6 µM (inactive) and the GI50 (A549) is reported as > 100 µM (inactive). The GI50 (ACHN) was > 100 µM (inactive), the GI50 (BT-549) was > 100 µM (inactive) and the GI50 (CAKI-1) was > 100 µM (inactive). For the same molecule, the GI50 (CCRF-CEM) was > 100 µM (inactive), the GI50 (COLO 205) was 96.8 µM (inactive) and the GI50 (DU-145) was > 100 µM (inactive). The GI50 (EKVX) was > 100 µM (inactive), the GI50 (HCC 2998) was 88.1 µM (inactive) and the GI50 (HCT-116) was > 100 µM (inactive). The GI50 (HCT-15) was 85.9 µM, the GI50 (HL-60) was > 100 µM (inactive) and the GI50 (HOP-62) was > 100 µM (inactive). For the same molecule, the GI50 (HOP-92) was 24.2 µM (inactive), the GI50 (HT-29) was > 100 µM (inactive) and the GI50 (Hs-578T) was 23.7 µM (inactive). The GI50 (IGROV-1) was > 100 µM (inactive), the GI50 (K562) was 64.4 µM (inactive) and the GI50 (KM12) was 71 µM (inactive). For the same molecule, the GI50 (LOX IMVI) was > 100 µM (inactive), the GI50 (M14) was > 100 µM (inactive) and the GI50 (MCF7) was > 100 µM (inactive). For the same molecule, the GI50 (MDA-MB-231) was > 100 µM (inactive), the GI50 (MDA-MB-435) was 26.3 µM (inactive) and the GI50 (MDA-N) was 25.5 µM (inactive). The GI50 (MOLT-4) was 84.3 µM (inactive), the GI50 (Malme-3M) was 49.7 µM (inactive) and the GI50 (NCI-H226) was 68.2 µM (inactive). For the same molecule, the GI50 (NCI-H23) was > 100 µM (inactive), the GI50 (NCI-H460) was > 100 µM (inactive) and the GI50 (NCI-H522) was 23.5 µM (inactive). For the same molecule, the GI50 (NCI/ADR-RES) was 57.4 µM (inactive), the GI50 (OVCAR-3) was > 100 µM (inactive) and the GI50 (OVCAR-4) was > 100 µM (inactive). The GI50 (OVCAR-5) was > 100 µM (inactive), the GI50 (OVCAR-8) was 89.1 µM (inactive) and the GI50 (PC-3) was > 100 µM (inactive). For the same molecule, the GI50 (RPMI-8226) was 32.5 µM (inactive), the GI50 (RXF 393) was 77.3 µM (inactive) and the GI50 (SF-268) was 63.8 µM (inactive). For the same molecule, the GI50 (SF-295) was > 100 µM (inactive), the GI50 (SF-539) was 57.3 µM (inactive) and the GI50 (SK-MEL-28) was > 100 µM (inactive). For the same molecule, the GI50 (SK-MEL-2) was > 100 µM (inactive), the GI50 (SK-OV-3) was > 100 µM (inactive) and the GI50 (SN12C) was > 100 µM (inactive). For the same molecule, the GI50 (SNB-19) was > 100 µM (inactive), the GI50 (SNB-75) was 55.3 µM (inactive) and the GI50 (SW-620) was > 100 µM (inactive). The GI50 (T47D) was > 100 µM (inactive), the GI50 (TK-10) was > 100 µM (inactive) and the GI50 (U-251) was > 100 µM (inactive). For the same molecule, the GI50 (UACC-257) was 99.5 µM (inactive) and the GI50 (UACC-62) was 69 µM (inactive).
